Assay results: article PMC9788584, “Quinoxalinones as A Novel Inhibitor Scaffold for EGFR (L858R/T790M/C797S) Tyrosine Kinase: Molecular Docking, Biological Evaluations, and Computational Insights” (Molecules, 2022)
Where two headings read alike, the source gives them in different places.

Columns and labels:
[1] = tested on: H1975 lung cancer cells expressing L858R/T790M EGFR; test: MTT cytotoxicity assay on H1975 cells; type: cell-based, Human; conditions: read-out: IC50, cytotoxic effect on H1975 cell viability
Procedure: Both cells were maintained to grow at 37 °C in a humidified 5% CO2 atmosphere.
The studied cell lines were seeded into 96-well plates (cell density of 6000 cells/well) and were incubated overnight. […] After incubation, the effect of compounds on cell viability was measured using the MTT assay as follows: 10 μL of MTT solution (5 mg/mL) was added and then incubated for 3 h. The medium was removed, followed by adding 50 μL of DMSO to dissolve the crystal formazan product. The purple solution of crystal formazan was then measured at 570 nm using a microplate spectrophotometer (Infinite M200 microplate reader, Tecan, Männedorf, Switzerland). The complete medium with 1.0% DMSO (no inhibitor) was used as a control in accordance with the reaction containing 1.0% DMSO of all wells.

in vitro = conditions: monkey, IC50, cytotoxic effect on Vero cell viability
Procedure: (§1) Human NSCLC cell lines, H1975 (ATCC CRL-5908) and monkey’s normal kidney epithelial cell line (Vero, ATCC CCL-81) were purchased from American Type Culture Collection (ATCC, Manassas, VA, USA). H1975 cells were grown in RPMI-1640 medium supplemented with 10% FBS, 100 U/mL penicillin, and 100 µg/mL streptomycin. Vero cells were grown in Dulbecco’s modified Eagle’s minimal essential medium (DMEM; Gibco, Grand Island, NY, USA) containing 10% fetal bovine serum (FBS; Gibco), 100 U/mL penicillin, and 100 µg/mL streptomycin (Gibco). Both cells were maintained to grow at 37 °C in a humidified 5% CO2 atmosphere.
(§2) The studied cell lines were seeded into 96-well plates (cell density of 6000 cells/well) and were incubated overnight. Then, cells were treated with screened compounds and the known drug with various concentrations (125, 62.5, 31.25, 15.63, 7.81, 3.91, 1.95, and 0.98 μM) for 72 h. After incubation, the effect of compounds on cell viability was measured using the MTT assay as follows: 10 μL of MTT solution (5 mg/mL) was added and then incubated for 3 h. The medium was removed, followed by adding 50 μL of DMSO to dissolve the crystal formazan product. The purple solution of crystal formazan was then measured at 570 nm using a microplate spectrophotometer (Infinite M200 microplate reader, Tecan, Männedorf, Switzerland). The complete medium with 1.0% DMSO (no inhibitor) was used as a control in accordance with the reaction containing 1.0% DMSO of all wells.

[2] = MTT cytotoxicity assay on Vero cells; conditions: monkey, Vero cells (normal kidney epithelial cell line), IC50, cytotoxic effect on Vero cell viability
Procedure: as §1, §2

[3] = molecular target: EGFR (L858R/T790M/C797S) TK (Homo sapiens, UniProt P00533, C797S/L858R/T790M); test: ADP-Glo kinase assay, EGFR tyrosine kinase inhibition; type: biochemical
EGFR (L858R/T790M/C797S) TK, sequence (P00533 25-1210 T790M/C797S/L858R): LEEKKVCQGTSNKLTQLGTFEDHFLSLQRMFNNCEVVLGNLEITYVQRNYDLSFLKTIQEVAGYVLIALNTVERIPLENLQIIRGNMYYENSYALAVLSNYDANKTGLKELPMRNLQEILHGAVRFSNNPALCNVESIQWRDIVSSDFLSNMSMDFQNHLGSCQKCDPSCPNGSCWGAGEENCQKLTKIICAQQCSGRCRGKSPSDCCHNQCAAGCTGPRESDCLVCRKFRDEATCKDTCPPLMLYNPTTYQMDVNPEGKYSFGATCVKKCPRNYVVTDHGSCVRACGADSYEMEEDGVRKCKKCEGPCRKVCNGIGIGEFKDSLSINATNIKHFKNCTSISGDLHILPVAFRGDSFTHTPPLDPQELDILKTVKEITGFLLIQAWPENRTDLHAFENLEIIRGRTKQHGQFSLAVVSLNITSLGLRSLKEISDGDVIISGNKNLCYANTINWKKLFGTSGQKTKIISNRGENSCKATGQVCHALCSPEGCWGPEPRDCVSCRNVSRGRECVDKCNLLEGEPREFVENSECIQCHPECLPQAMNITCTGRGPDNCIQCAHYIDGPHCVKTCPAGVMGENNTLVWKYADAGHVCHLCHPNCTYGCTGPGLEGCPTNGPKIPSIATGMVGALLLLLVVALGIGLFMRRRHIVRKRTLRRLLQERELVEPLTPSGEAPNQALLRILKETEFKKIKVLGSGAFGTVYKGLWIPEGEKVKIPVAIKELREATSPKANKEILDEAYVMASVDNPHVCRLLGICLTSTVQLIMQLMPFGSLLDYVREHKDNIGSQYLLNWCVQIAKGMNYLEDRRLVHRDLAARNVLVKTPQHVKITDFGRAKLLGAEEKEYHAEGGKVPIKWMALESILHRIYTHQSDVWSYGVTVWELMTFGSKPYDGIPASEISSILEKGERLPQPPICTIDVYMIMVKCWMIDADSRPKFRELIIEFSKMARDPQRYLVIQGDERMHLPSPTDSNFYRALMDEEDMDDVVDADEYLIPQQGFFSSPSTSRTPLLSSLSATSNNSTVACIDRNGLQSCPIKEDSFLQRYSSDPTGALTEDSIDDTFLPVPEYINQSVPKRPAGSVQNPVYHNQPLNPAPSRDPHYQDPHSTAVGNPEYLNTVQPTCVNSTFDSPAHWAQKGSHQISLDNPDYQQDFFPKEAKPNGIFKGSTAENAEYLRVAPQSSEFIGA
Procedure: The inhibitory activity of each candidate compound towards EGFR triple mutations was performed using the luminescent ADP-Glo™ kinase assay (Promega Corporation, Madison, WI, USA) as previously described. […] Subsequently, 10 μL of kinase detection reagent was added and incubated at room temperature for 30 min to convert ADP into ATP. The generated luminescence by ATP in a luciferase reaction was then measured using a microplate reader (Infinite M200 microplate reader, Tecan, Männedorf, Switzerland), which corresponds to kinase activity. All assays were performed in triplicate and the obtained data were represented as the relative inhibition (%) of inhibitors compared to the control with no inhibitor as shown in Equation (1); (1) % relative inhibition=positive−negative−sample−negative/positive−negative×100

Vero normal kidney cells = test: MTT cytotoxicity assay on Vero cells; conditions: read-out: IC50, cytotoxic effect on Vero cell viability, 72 h
Procedure: as §1, §2

[4] = Homo sapiens, NCI-H1975, MTT, 72 h
[5] = enzyme-based assay, mean ± SEM, triplicate, read-out: IC50, kinase inhibitory activity against EGFR (L858R/T790M/C797S)

Compound	IC50 ([1]; Homo sapiens, NCI-H1975, 72 h)	IC50 at 72 h (in vitro)	IC50 at 72 h [2]	IC50 [1, 4]	IC50 [3, 5]	IC50 (Vero normal kidney cells)	IC50 ([1]; MTT, 72 h)	IC50 [3]
C=CC(=O)Nc1cc(Nc2nccc(-c3cn(C)c4ccccc34)n2)c(OC)cc1N(C)CCN(C)C [Osimertinib, reference compound]	18.3 ± 2.02 µM	> 100 µM	–	–	–	–	–	–
O=c1[nH]c2ccccc2nc1OCc1ccccc1 [CPD16]	–	–	> 100 µM	79.4 ± 4.35 µM	0.0105 ± 0.0011 µM	–	–	–
O=c1c(-n2cncn2)nc2ccccc2n1Cc1ccccc1 [CPD4]	–	–	> 20 µM	3.47 ± 2.2 µM	0.00304 ± 0.00124 µM	–	–	–
CCn1c(=O)c(-n2cnc3ccccc32)nc2ccccc21 [CPD15]	–	–	> 100 µM	–	–	> 50 µM	31.2 ± 3.4 µM	0.0065 ± 0.00302 µM
CCOc1nc2ccccc2n(Cc2ccccc2)c1=O [CPD21, 1-Benzyl-3-ethoxyquinoxalin-2(1H)-one]	–	–	> 100 µM	44.7 ± 2.34 µM	0.00381 ± 0.0018 µM	–	–	–
